# Marks after values point to notes of the source that are not given here.
# Test system: severe traumatic brain injury (sTBI) in rats
# Assay: HPLC of purine-pyrimidine / energy metabolites in rat brain after sTBI (Example 4)
# Format: in vivo
# Description: The effects of daily sub-cutaneous injections of dextran sulfate on glutamate excitotoxicity and mitochondrial function after severe traumatic brain injury (sTBI) in rats were evaluated by high-performance liquid chromatography (HPLC) analysis of frozen brain samples.
# The experimental protocol used in this study was approved by the Ethical Committee of the Catholic University of Rome, according to international standards and guidelines for animal care. Male Wistar rats of 300-350 g body weight (b.w.) were fed with standard laboratory diet and water ad libitum in a controlled environment.
# They were divided into three groups: • 1) n=6 animals subjected to sTBI, with drug administration after 30 minutes and sacrifice at 2 days post-TBI (Acute phase 1) • 2) n=6 animals subjected to severe-TBI, with drug administration after 30 minutes and sacrifice at 7 days post-TBI (Acute phase 2). • 3) n=6 animals subjected to severe-TBI, with drug administration after 3 days and sacrifice at 7 days post-TBI (Chronic phase).
# As the anesthetic mixture, animals received 35 mg/kg b.w. ketamine and 0.25 mg/kg b.w. midazolam by i.p. injection. sTBI was induced by dropping a 450 g weight from 2 m height on to the rat head that had been protected by a metal disk previously fixed on the skull, according to the “weight drop” impact acceleration model (Marmarou et al., A new model of diffuse brain injury in rats. Part I: Pathophysiology and biomechanics. J Neurosurg. 1994; 80: 291-300). […] At the end of each period of treatment, rats were anesthetized again and then immediately sacrificed.
# The drug treatment was a subcutaneous injection of 0.5 ml of dextran sulfate (Tikomed AB, Viken, Sweden, WO 2016/076780; 15 mg/kg) and administered according to the aforementioned schematic protocol.
# An in vivo craniectomy was performed in all animals during anesthesia, after carefully removing the rat's skull, the brain was exposed and removed with a surgical spatula and quickly dropped in liquid nitrogen. After the wet weight (w.w.) determination, tissue preparation was affected as previously disclosed (Tavazzi et al., Cerebral oxidative stress and depression of energy metabolism correlate with severity of diffuse brain injury in rats. Neurosurgery. 2005; 56: 582-589; Vagnozzi et al., Temporal window of metabolic brain vulnerability to concussions: mitochondrial-related impairment-part I. Neurosurgery. 2007; 61: 379-388; Tavazzi et al., Temporal window of metabolic brain vulnerability to concussions: oxidative and nitrosative stresses-part II. Neurosurgery. 2007; 61: 390-395; Amorini et al., Severity of experimental traumatic brain injury modulates changes in concentrations of cerebral free amino acids. J Cell Mol Med. 2017; 21: 530-542.). Briefly, whole brain homogenization was performed with 7 ml of ice-cold, nitrogen-saturated, precipitating solution composed by CH3CN+10 mM KH2PO4, pH 7.40, (3:1; v:v), and using an Ultra-Turrax set at 24,000 rpm/min (Janke & Kunkel, Staufen, Germany). After centrifugation at 20,690×g, for 10 min at 4° C., the clear supernatants were saved, pellets were supplemented with 3 ml of the precipitating solution and homogenized again as described above. A second centrifugation was performed (20,690×g, for 10 min at 4° C.), pellets were saved, supernatants combined with those previously obtained, extracted by vigorous agitation with a double volume of HPLC-grade CHCl3 and centrifuged as above. The upper aqueous phases containing water-soluble low-molecular weight compounds were collected, subjected to chloroform washings for two more times (this procedure allowed the removal of all the organic solvent and of any lipid soluble compound from the buffered tissue extracts), adjusted in volumes with 10 mM KH2PO4, pH 7.40, to have ultimately aqueous 10% tissue homogenates and saved at −80° C. until assayed. […]
# [1] = Acute phase 1 (15 mg/kg s.c. 30 min after sTBI, sacrifice 2 days post-TBI)
# [2] = Acute phase 2 (15 mg/kg s.c. 30 min after sTBI, sacrifice 7 days post-TBI)
substance,measurement,setting,value
dextran sulfate,ADO concentration,[1],71.67 ± 15.87 nmol/g (w.w.)
same,ADP concentration,[1],279.34 ± 29.59^b nmol/g (w.w.)
same,ADP-ribose concentration,[1],137.87 ± 43.18^a nmol/g (w.w.)
same,AMP concentration,[1],"53.61 ± 17.91^a,c,j nmol/g (w.w.)"
same,ATP concentration,[1],"1464.25 ± 99.09^a,h nmol/g (w.w.)"
same,CDP choline concentration,[1],"10.93 ± 3.22^b,h nmol/g (w.w.)"
same,CDP concentration,[1],"25.53 ± 6.83^a,c nmol/g (w.w.)"
same,CMP concentration,[1],"30.12 ± 9.97^a,h nmol/g (w.w.)"
same,CTP concentration,[1],"18.98 ± 6.58^a,g nmol/g (w.w.)"
same,CoA-SH concentration,[1],"21.61 ± 3.42^a,h nmol/g (w.w.)"
same,GDP concentration,[1],158.72 ± 24.57^a nmol/g (w.w.)
same,GDP glucose concentration,[1],38.71 ± 6.86 nmol/g (w.w.)
same,GMP concentration,[1],"177.00 ± 32.39^a,g nmol/g (w.w.)"
same,GSH concentration,[1],"2649.50 ± 397.31^a,d nmol/g (w.w.)"
same,GSSG concentration,[1],185.21 ± 48.10 nmol/g (w.w.)
same,GTP concentration,[1],"255.29 ± 45.21^a,g nmol/g (w.w.)"
same,IMP concentration,[1],"67.71 ± 10.63^g,i nmol/g (w.w.)"
same,MDA concentration,[1],"12.47 ± 2.09^a,c,g nmol/g (w.w.)"
same,NAA concentration,[1],6147.91 ± 989.12^a nmol/g (w.w.)
same,NADH concentration,[1],"15.49 ± 2.05^c,j nmol/g (w.w.)"
same,NADPH concentration,[1],6.22 ± 1.73 nmol/g (w.w.)
same,NADP^+ concentration,[1],17.95 ± 3.28^a nmol/g (w.w.)
same,NAD^+ concentration,[1],"404.63 ± 51.10^a,c,i nmol/g (w.w.)"
same,NO2 concentration,[1],216.03 ± 41.74^a nmol/g (w.w.)
same,NO3 concentration,[1],210.64 ± 91.95^d nmol/g (w.w.)
same,UDP concentration,[1],"61.83 ± 10.23^a,g nmol/g (w.w.)"
same,UDP-Gal concentration,[1],119.45 ± 12.50 nmol/g (w.w.)
same,UDP-GalNac concentration,[1],19.17 ± 4.01^a nmol/g (w.w.)
same,UDP-Glc concentration,[1],32.14 ± 4.59^g nmol/g (w.w.)
same,UDP-GlcNac concentration,[1],"95.85 ± 19.73^h,i nmol/g (w.w.)"
same,UMP concentration,[1],107.80 ± 21.62 nmol/g (w.w.)
same,UTP concentration,[1],123.46 ± 15.42^d nmol/g (w.w.)
same,acetyl-CoA concentration,[1],"21.56 ± 6.22^a,g,i nmol/g (w.w.)"
same,adenine concentration,[1],"44.82 ± 6.31^a,d,g nmol/g (w.w.)"
same,ascorbic acid concentration,[1],"3733.10 ± 277.88^a,d nmol/g (w.w.)"
same,creatinine concentration,[1],"24.55 ± 3.20^b,g,i nmol/g (w.w.)"
same,cytidine concentration,[1],15.40 ± 3.04 nmol/g (w.w.)
same,cytosine concentration,[1],"17.69 ± 2.50^b,d nmol/g (w.w.)"
same,guanine concentration,[1],4.80 ± 1.24^b nmol/g (w.w.)
same,guanosine concentration,[1],20.71 ± 5.66 nmol/g (w.w.)
same,hypoxanthine concentration,[1],14.47 ± 2.87^a nmol/g (w.w.)
same,inosine concentration,[1],92.55 ± 31.20^c nmol/g (w.w.)
same,malonyl-CoA concentration,[1],12.33 ± 1.82^b nmol/g (w.w.)
same,orotic acid concentration,[1],"8.80 ± 2.45^b,h,j nmol/g (w.w.)"
same,thymidine concentration,[1],0.69 ± 0.11 nmol/g (w.w.)
same,uracil concentration,[1],14.56 ± 5.44 nmol/g (w.w.)
same,uric acid concentration,[1],"23.62 ± 3.77^a,d,h nmol/g (w.w.)"
same,uridine concentration,[1],"76.35 ± 12.85^a,c nmol/g (w.w.)"
same,xanthine concentration,[1],9.46 ± 2.34^d nmol/g (w.w.)
same,β-pseudouridine concentration,[1],"6.65 ± 1.30^g,i nmol/g (w.w.)"
same,ADO concentration,[2],82.11 ± 16.51^a nmol/g (w.w.)
same,ADP concentration,[2],"264.07 ± 28.29^b,e,j nmol/g (w.w.)"
same,ADP-ribose concentration,[2],"141.96 ± 23.56^a,e,j nmol/g (w.w.)"
same,AMP concentration,[2],"57.70 ± 23.01^a,e,j nmol/g (w.w.)"
same,ATP concentration,[2],"1632.23 ± 90.07^a,e,j nmol/g (w.w.)"
same,CDP choline concentration,[2],6.91 ± 1.86 nmol/g (w.w.)
same,CDP concentration,[2],24.29 ± 6.76^a nmol/g (w.w.)
same,CMP concentration,[2],"15.68 ± 2.12^f,j nmol/g (w.w.)"
same,CTP concentration,[2],"32.63 ± 3.99^e,i nmol/g (w.w.)"
same,CoA-SH concentration,[2],30.57 ± 6.02^f nmol/g (w.w.)
same,GDP concentration,[2],"126.70 ± 31.35^a,j nmol/g (w.w.)"
same,GDP glucose concentration,[2],49.25 ± 10.33^a nmol/g (w.w.)
same,GMP concentration,[2],"91.47 ± 12.35^e,i nmol/g (w.w.)"
same,GSH concentration,[2],"2821.50 ± 242.82^a,e nmol/g (w.w.)"
same,GSSG concentration,[2],219.54 ± 53.36 nmol/g (w.w.)
same,GTP concentration,[2],"336.65 ± 35.18^a,e,j nmol/g (w.w.)"
same,IMP concentration,[2],102.63 ± 22.09^a nmol/g (w.w.)
same,MDA concentration,[2],"4.82 ± 1.73^a,e,i nmol/g (w.w.)"
same,NAA concentration,[2],"7262.84 ± 749.73^a,e nmol/g (w.w.)"
same,NADH concentration,[2],13.12 ± 4.19^e nmol/g (w.w.)
same,NADPH concentration,[2],7.05 ± 2.21 nmol/g (w.w.)
same,NADP^+ concentration,[2],"21.27 ± 4.19^b,e,j nmol/g (w.w.)"
same,NAD^+ concentration,[2],"401.18 ± 34.53^a,e,i nmol/g (w.w.)"
same,NO2 concentration,[2],226.40 ± 30.95^b nmol/g (w.w.)
same,NO3 concentration,[2],"198.56 ± 25.93^e,i nmol/g (w.w.)"
same,UDP concentration,[2],"40.38 ± 8.50^a,i nmol/g (w.w.)"
same,UDP-Gal concentration,[2],145.14 ± 27.76 nmol/g (w.w.)
